# Legend:
# [1] = Solubility of neutral fluorinated surfactants in water at 22° C. (capillary GC of saturated solutions); format: physicochemical; details: pure deionized water
# Procedure: Various neutral fluorinated surfactants were tested to determine their solubility in pure deionized water.
# [2] = Surface Tension Test Method (Kruss K12 tensiometer, Wilhelmy plate); format: physicochemical
# Procedure: Surface Tension Test Method
# Surface tension was measured using a K12 process tensiometer (available from Kruss GmbH of Hamburg, Germany) using a Wilhemly plate method with a platinum PL01 plate (available from Krüss GmbH). Forty milliliters of the solution to be tested were placed in a 60 mL glass snap cap jar with an inner diameter of approximately 1.5 inches.
# [3] = aqueous TMAH, mole ratio 1.0, equivalent concentrations
# [4] = aqueous TMAH, mole ratio 2.0, same concentrations
# [5] = aqueous ammonium hydroxide, mole ratio 2.0, same concentrations
Compound,% Soluble in water at 22 Deg C. [1],melting point,"Surface tension in water compared [2, 3]","Surface tension in water compared [2, 4]","Surface tension in water compared [2, 5]"
"CN(CCO)S(=O)(=O)C(F)(F)C(F)(F)C(F)(F)C(F)(F)F [C, reference compound]",0.118%,,,,
"CN(CCOCCO)S(=O)(=O)C(F)(F)C(F)(F)C(F)(F)C(F)(F)F [VI, C4F9SO2N(CH3)(CH2CH2OCH2CH2OH)]",0.232%,80.5 °C,,,
"O=S(=O)(NCCOCCOCCO)C(F)(F)C(F)(F)C(F)(F)C(F)(F)F [VIII, C4F9SO2NH(CH2CH2OCH2CH2OCH2CH2OH)]",,,significantly lower surface tensions than H-FBSE,significantly lower surface tension in water than H-FBSE,lowest surface tension in water of all the materials tested
"O=S(=O)(NCCOCCO)C(F)(F)C(F)(F)C(F)(F)C(F)(F)F [III, C4F9SO2N(H)CH2CH2OCH2CH2OH]",,35.7 °C,significantly lower surface tensions than H-FBSE,significantly lower surface tension in water than H-FBSE,lower surface tension in water than the H-FBSE
"O=S(=O)(NCCO)C(F)(F)C(F)(F)C(F)(F)C(F)(F)F [A, reference compound]",,,,,roughly equivalent surface tensions
"O=S(=O)(N(CCOCCO)CCOCCO)C(F)(F)C(F)(F)C(F)(F)C(F)(F)F [IV, C4F9SO2N(CH2CH2OCH2CH2OH)2]",0.101%,,,,
"O=S(=O)(N(CCO)CCO)C(F)(F)C(F)(F)C(F)(F)C(F)(F)F [B, reference compound]",0.0592%,,,,
"CC(O)CNS(=O)(=O)C(F)(F)C(F)(F)C(F)(F)C(F)(F)F (centres unmarked) [I, C4F9SO2N(H)CH2CH(CH3)OH]",,80.33 °C,,,roughly equivalent surface tensions
"O=S(=O)(N(CCO)CCOCCO)C(F)(F)C(F)(F)C(F)(F)C(F)(F)F [V, C4F9SO2N(CH2CH2OCH2CH2OH)(CH2CH2OH)]",100 (miscible)^ %,45.1 °C,,,
